Counter-ions that a name gives are not always drawn.
What follows are compounds tested against T1, human CCR5 (Homo sapiens, UniProt P51681) (assay: CCR5 binding assay: inhibition of [125I]-RANTES binding to CHO/CCR5 cells). Conditions: 1.0 μM test compound, 100 pM [125I]-RANTES, room temperature 40 minutes.
T1 construct: expressed in transfected cells; whole cells in the well
Procedure: (1) Cloning of Human CCR5 Chemokine Receptor
Cloning of CCR5 gene was carried out by PCR (polymerase chain reaction) from human spleen cDNA. With using 0.5 ng of spleen cDNA (Toyobo, QUICK-Clone cDNA) as template, PCR was performed in DNA Thermal Cycler 480 (Perkin-Elmer) (reaction conditions: 30 cycles of 95° C. for 1 minute, 60° C. for 1 minute, and 75° C. for 5 minutes) by adding primer set, 5′-[…]-3′ (25 pmol) and 5′-[…]-3′ (25 pmol), which were designed referring to nucleotide sequence of CCR5 gene reported by Samson et al. (Biochemistry, 35(11), 3362-3367 (1996)) and by using TaKaRa EX Taq (Takara Shuzo). The resultant PCR product was subjected to agarose gel electrophoresis to collect about 1.0 kb DNA fragment, which was subjected to Original TA Cloning Kit (Funakoshi) to carry out cloning of CCR5 gene.
(2) Preparation of Plasmid for Expression of Human […]
The plasmid obtained in the above (1) was digested with restriction enzymes XbaI (Takara Shuzo) and BamHI (Takara Shuzo) and subjected to agarose gel electrophoresis to collect about 1.0 kb DNA fragment. The DNA fragment was mixed with plasmid pcDNA3.1 (Funakoshi) for expression in animal cells, said plasmid being digested with XbaI and BamHI, and they were ligated with DNA Ligation Kit Ver.2 (Takara Shuzo). The resulting plasmid was subjected to transformation of competent cell of E. coli JM109 (Takara Shuzo) to obtain plasmid pCKR5.
(3) Introduction of Plasmid for Expression of Human CCR5 into CHO-K1 Cell and Expression of said Plasmid in CHO-KY Cell
CHO-K1 cells were grown in 750 ml of tissue culture flask (Becton Dickinson) using Ham's F12 medium (Nihon Pharmaceutical) containing 10% fetal calf serum (Life Tech Oriental) and took off with 0.5 g/L trypsin-0.2 g/L EDTA (Life Tech Oriental). The cells were washed with PBS (Life Tech Oriental), centrifuged (1000 rpm, 5 minutes), and suspended in PBS. With using Gene Pulser (Bio-Rad Laboratories), DNA was introduced into the cells under the conditions shown below. That is, to the cuvette of 0.4 cm gap were added 8×10^6 cells and 10 μg of plasmid pCKR5 for expression of human CCR5, and electroporation was carried out under 0.25 kV of voltage and […] of capacitance. The cells were transferred into Ham's F12 medium (Nihon Pharmaceutical) containing 10% fetal calf serum, and cultivated for 24 hours. The cells were again took off and centrifuged, and suspended in Ham's F12 medium (Nihon Pharmaceutical) containing 10% fetal calf serum and 500 μg/ml of geneticin (Life Tech Oriental). The suspension was diluted to give 10^4 cells/ml of the suspension, which was inoculated on 96 well plate (Becton Dickinson) to give geneticin resistant cells. The resulting geneticin resistant cells were cultivated in 96 well plate (Becton Dickinson), and cells expressing CCR5 were selected from the geneticin resistant cells. That is, in assay buffer (Ham's F12 medium containing 0.5% BSA and 20 mM HEPES (Wako Pure Chemical, pH7.2) to which was added 200 pM of [^125I]-RANTES (Amersham) as ligand, binding reaction was carried out at room temperature for 40 minutes, and the buffer was washed with cooled PBS. To the buffer was added 50 μl/well of 1M NaOH, and the mixture was stirred. Radioactivity was determined with γ-counter to select CHO/CCR5 cells which specifically bind to the ligand.
(4) Evaluation of Test Compounds Based on CCR5 Antagonistic Activity
The CHO/CCR5 were inoculated on 96 well microplate (5×10^4 cells/well) and cultivated for 24 hours. The medium was removed by means of suction, and to each well was added assay buffer containing Test Compound (191) and then 100 pM of [^125I]-RANTES (Amersham) as ligand. Binding assay was carried out at room temperature for 40 minutes, and assay buffer was removed by means of suction. Each well was washed twice with cooled PBS, and 200 μl of Microscint-20 (Packard Instrument, Inc.) was added to each well.

T1 sequence (P51681 whole entry): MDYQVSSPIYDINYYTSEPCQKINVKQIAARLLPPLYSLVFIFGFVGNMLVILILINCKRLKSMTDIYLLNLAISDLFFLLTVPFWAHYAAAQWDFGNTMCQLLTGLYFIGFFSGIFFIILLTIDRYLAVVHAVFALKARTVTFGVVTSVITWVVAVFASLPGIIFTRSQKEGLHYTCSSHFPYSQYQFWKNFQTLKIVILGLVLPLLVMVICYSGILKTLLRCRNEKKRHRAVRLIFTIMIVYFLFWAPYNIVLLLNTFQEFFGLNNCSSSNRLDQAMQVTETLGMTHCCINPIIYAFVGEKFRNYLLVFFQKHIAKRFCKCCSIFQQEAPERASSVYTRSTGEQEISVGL

Inhibition Rate (%) at 1.0 μM | Compound
96% | CC(=O)N1CCC(C(=O)N(CCCN2CCN(Cc3c(C)noc3C)CC2)c2cccc(Cl)c2)CC1.O=C(O)C(F)(F)F.O=C(O)C(F)(F)F [Example 272, 1-Acetyl-N-(3-chlorophenyl)-N-(3-{4-[(3,5-dimethylisoxazol-4-yl)methyl]-1-piperazinyl}propyl)-4-piperidinecarboxamide 2 Trifluoroacetate]
97% | CC(=O)N1CCC(C(=O)N(CCCN2CCC(Sc3nc4ccccc4s3)CC2)c2ccc(Cl)c(Cl)c2)CC1 [Example 224]

Same assay, conditions: 1.0 μM test compound, 100 pM [125I]-RANTES, room temperature 40 minutes, read-out: Inhibition Rate (%) at 1.0 μM

inhibition at 1 µM | Compound
99% | CC(=O)N1CCC(C(=O)N(CCCN2CCC(Cc3ccc(NS(C)(=O)=O)cc3)CC2)c2ccc(Cl)c(Cl)c2)CC1 [Example 304, 1-Acetyl-N-(3,4-dichlorophenyl)-N-[3-(4-{4-[(methylsulfonyl)amino]benzyl}-1-piperidinyl)propyl]-4-piperidinecarboxamide]
97% | Cc1cc(NS(=O)(=O)c2ccc(CC3CCN(CCCN(C(=O)C4CCN(S(C)(=O)=O)CC4)c4ccc(Cl)c(Cl)c4)CC3)cc2)no1 [Example 372, N-(3,4-Dichlorophenyl)-N-{3-[4-(4-{[(5-methyl-3-isoxazolyl)amino]sulfonyl}benzyl)-1-piperidinyl]propyl}-1-(methylsulfonyl)-4-piperidinecarboxamide]
83% | CC(=O)N1CCC(C(=O)N(CCCN2CCC(n3nnc4ccccc43)CC2)c2cccc(Cl)c2)CC1 [Example 289, 1-Acetyl-N-{3-[4-(1H-1,2,3-benzotriazol-1-yl)-1-piperidinyl]propyl}-N-(3-chlorophenyl)-4-piperidinecarboxamide]
99% | CCS(=O)(=O)c1ccc(CC2CCN(CCCN(C(=O)C3CCN(S(C)(=O)=O)CC3)c3cccc(Cl)c3)CC2)cc1 [Example 413, N-(3-Chlorophenyl)-N-(3-{4-[4-(ethylsulfonyl)benzyl]-1-piperidinyl}propyl)-1-(methylsulfonyl)-4-piperidinecarboxamide Hydrochloride]
100% | CC(C)S(=O)(=O)c1ccc(CC2CCN(CCCN(C(=O)C3CCN(S(C)(=O)=O)CC3)c3ccc(Cl)c(Cl)c3)CC2)cc1 [Example 384, N-(3,4-Dichlorophenyl)-N-(3-{4-[4-(isopropylsulfonyl)benzyl]-1-piperidinyl}propyl)-1-(methylsulfonyl)-4-piperidinecarboxamide]
98% | CS(=O)(=O)c1ccc(CC2CCN(CCCN(C(=O)C3CCN(S(C)(=O)=O)CC3)c3ccc(Cl)c(Cl)c3)CC2)cc1 [Example 420, N-(3,4-Dichlorophenyl)-1-(methylsulfonyl)-N-(3-{4-[4-(methylsulfonyl)benzyl]-1-piperidinyl}propyl)-4-piperidinecarboxamide Hydrochloride]
97% | CS(=O)(=O)Nc1ccc(CC2CCN(CCCN(C(=O)C3CCN(S(C)(=O)=O)CC3)c3ccc(Cl)c(Cl)c3)CC2)cc1 [Example 313-2, N-(3,4-Dichlorophenyl)-1-(methylsulfonyl)-N-[3-(4-{4-[(methylsulfonyl)amino]benzyl}-1-piperidinyl)propyl]-4-piperidinecarboxamide]
97% | CC(=O)N1CCC(C(=O)N(CCCN2CCC(Cc3ccc(C(N)=O)cc3)CC2)c2ccc(C)c(Cl)c2)CC1 [Example 376, 1-Acetyl-N-(3-{4-[4-(aminocarbonyl)benzyl]-1-piperidinyl}propyl)-N-(3-chloro-4-methylphenyl)-4-piperidinecarboxamide]
96% | COc1ccc(CC2CCN(CCCN(C(=O)C3CCN(S(C)(=O)=O)CC3)c3ccc(Cl)c(Cl)c3)CC2)cc1 [Example 250, N-(3,4-Dichlorophenyl)-N-{3-[4-(4-methoxybenzyl)-1-piperidinyl]propyl}-1-(methylsulfonyl)-4-piperidinecarboxamide]
92% | CS(=O)(=O)N1CCC(C(=O)N(CCCN2CCC(Cc3ccc(-n4cnnn4)cc3)CC2)c2ccc(Cl)c(Cl)c2)CC1 [Example 309, N-(3,4-Dichlorophenyl)-1-(methylsulfonyl)-N-(3-{4-[4-(1H-tetrazol-1-yl)benzyl]-1-piperidinyl}propyl)-4-piperidinecarboxamide]
98% | CS(=O)(=O)N1CCC(C(=O)N(CCCN2CCC(Cn3cnc4ccccc43)CC2)c2ccc(Cl)c(Cl)c2)CC1 [Example 261, N-{3-[4-(1H-Benzimidazol-1-ylmethyl)-1-piperidinyl]propyl}-N-(3,4-dichlorophenyl)-1-methylsulfonyl-4-piperidinecarboxamide]

Further lines, the compound ahead of its results:

Compound | inhibition at 1 µM
CS(=O)(=O)N1CCC(C(=O)N(CCCN2CCC(S(=O)(=O)c3ccc(F)cc3)CC2)c2ccc(Cl)c(Cl)c2)CC1 [Example 190, N-(3,4-Dichlorophenyl)-N-{3-[4-(4-fluorophenylsulfonyl)-1-piperidinyl]propyl}-1-(methylsulfonyl)-4-piperidinecarboxamide] | 100%
CC(=O)N1CCC(C(=O)N(CCCN2CCC(Cc3ccccc3)CC2)Cc2ccc(Cl)cc2)CC1 [Example 40, 1-Acetyl-N-[3-(4-benzyl-1-piperidinyl)propyl]-N-(4-chlorobenzyl)-4-piperidinecarboxamide Trifluoroacetate] | 98%
CC(=O)N1CCC(C(=O)N(CCCN2CCC(Cc3ccccc3)CC2)c2ccccc2)CC1 [Example 3, 1-Acetyl-N-[3-(4-benzyl-1-piperidinyl)propyl]-N-phenyl-4-piperidinecarboxamide] | 98%
NC(=O)C(=O)N1CCC(C(=O)N(CCCN2CCC(Cc3ccc(F)cc3)CC2)c2ccc(Cl)c(Cl)c2)CC1 [Example 150, N-(3,4-Dichlorophenyl)-N-{3-[4-(4-fluorobenzyl)-1-piperidinyl]propyl}-1-oxamoyl-4-piperidinecarboxamide Trifluoroacetate] | 98%
COc1ccc(CC2CCN(CCCN(C(=O)C3CCN(C(C)=O)CC3)c3ccc(Cl)c(Cl)c3)CC2)cc1 [Example 249, 1-Acetyl-N-(3,4-dichlorophenyl)-N-{3-[4-(4-methoxybenzyl)-1-piperidinyl]propyl}-4-piperidinecarboxamide] | 94%
CN(C)C(=O)N1CCC(C(=O)N(CCCN2CCC(Cc3ccccc3)CC2)c2ccc(Cl)c(Cl)c2)CC1 [Example 27, N-[3-(4-Benzyl-1-piperidinyl)propyl]-N-(3,4-dichlorophenyl)-1-(N,N-dimethylcarbamoyl)-4-piperidinecarboxamide] | 99%
CC(=O)N1CCC(C(=O)N(CCCN2CCN(Cc3ccc4c(c3)OCO4)CC2)c2cccc(Cl)c2)CC1 [Example 57, 1-Acetyl-N-(3-chlorophenyl)-N-[3-(4-piperonyl-1-piperazinyl)propyl]-4-piperidinecarboxamide Trifluoroacetate] | 96%
CC(=O)N1CCC(C(=O)N(CCCN2CCC(S(=O)(=O)c3ccc(F)cc3)CC2)c2ccc(Cl)c(Cl)c2)CC1 [Example 189, 1-Acetyl-N-(3,4-dichlorophenyl)-N-{3-[4-(4-fluorophenylsulfonyl)-1-piperidinyl]propyl}-4-piperidinecarboxamide] | 100%
CC(=O)N1CCC(C(=O)N(CCCN2CCC(Cc3nccs3)CC2)c2cccc(Cl)c2)CC1 [Example 168, 1-Acetyl-N-(3-chlorophenyl)-N-{3-[4-(2-thiazolylmethyl)-1-piperidinyl]propyl}-4-piperidinecarboxamide Ditrifluoroacetate] | 82%
